US12263144B2, “Methods of treating IgA nephropathy with thiol-containing molecules” (Accubit LLC—Biotechnology, priority 2020, dated 2025)

Legend:
Assay type in all cases: biochemical
[1] = target: T1, poly-IgA complexes from IgA nephropathy patients' plasma (Homo sapiens, UniProt P01876); experiment: SDS-PAGE / anti-IgA Western blotting of poly-IgA from IgA nephropathy patients' plasma with or without reducing agent; conditions: reducing condition
T1 construct: human IgA1 whole molecule was purified from pooled plasma of IgA nephropathy patients; from tissue
T1 sequence (P01876 1-353 isoform P01876-1, one chain of several): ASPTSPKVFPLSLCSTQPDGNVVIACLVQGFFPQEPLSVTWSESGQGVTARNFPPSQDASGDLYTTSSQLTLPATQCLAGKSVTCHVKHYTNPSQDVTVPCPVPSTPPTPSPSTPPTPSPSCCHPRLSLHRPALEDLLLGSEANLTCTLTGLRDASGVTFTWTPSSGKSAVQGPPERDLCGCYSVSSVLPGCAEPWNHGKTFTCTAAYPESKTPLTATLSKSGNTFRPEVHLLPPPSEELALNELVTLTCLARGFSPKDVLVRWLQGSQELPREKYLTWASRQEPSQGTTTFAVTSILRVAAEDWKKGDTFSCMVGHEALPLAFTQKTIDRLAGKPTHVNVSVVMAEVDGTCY
Text: (§1) IgA1 from IgA nephropathy patient sera was purified by Jacalin (Thermo Scientific, USA)-directed affinity chromatography. Poly-IgA1 contents were further enriched via running Superdex 200 Increase gel filtration molecular sieve (GE Biosciences) and collecting high-molecular weight fractions from an AKTA protein purification system (GE Biosciences). Human serum from healthy donors was purchased from Sigma-Aldrich and total IgA1 was also purified by running Jacalin-directed chromatography. Purified total IgA1 was used for injecting mice.
Proteins in sample buffer (Bio-Rad Laboratories, Hercules, CA, USA) with or without TCEP (for reducing or nonreducing condition, respectively) were resolved by 4-12% SDS-PAGE (Bio-Rad Laboratories). IgA bands were subsequently visualized either by staining with GelCode Blue (Thermo Fisher Scientific), or by Western blotting on PVDF membrane. […]
In this Example, it was sought to isolate high molecular weight IgA complexes, such as poly-IgA, from plasma of IgA nephropathy patients. […] By running SDS-PAGE of the poly-IgA fraction under both reducing and nonreducing conditions, it was determined that the molecular complexes of IgA were connected through disulfide bridges (FIG. 1, part B). […] IgA1 complexes were extracted from individual patients by SEC and analyzed the contents by SDS-PAGE.

[2] = tested on: natural IgA1 assembly (two heavy chains and two light chains connected via disulfide bonds); experiment: Ex vivo study: integrity of natural IgA assembly under thiol/reducing agents
Procedure: (§2) The overall complex size of IgA aggregates was determined either by size-exclusion chromatography (SEC: Superdex 200 Increase 10/300 by GL Cytiva), or by SDS-PAGE. For evaluating the involvement of intermolecular disulfide connectivity in IgA complexes, IgA samples were treated with either reducing agents, such as DTT, TCEP or reduced glutathione (Sigma), or interventional drugs, such as cysteamine (Sigma), WR-1065 (Sigma) and N-Acetyl-L-cysteine (VWR Chemicals) in phosphate-buffered saline (PBS) pH7.4. Before running on SEC, samples were treated with the drugs at indicated concentrations at 37° C. for one hour.
(§3) Proteins in sample buffer (Bio-Rad Laboratories, Hercules, CA, USA) with or without TCEP (for reducing or nonreducing condition, respectively) were resolved by 4-12% SDS-PAGE (Bio-Rad Laboratories). IgA bands were subsequently visualized either by staining with GelCode Blue (Thermo Fisher Scientific), or by Western blotting on PVDF membrane. For Western blotting, 5% non-fat milk was used in blocking for one hour at room temperature. The membrane was then incubated with mouse anti-Histag antibody (Thermo Scientific), or HRP-conjugated goat anti-rat IgA α-chain antibody (Cat. ab97185, Abcam, UK), or goat anti-human IgA HRP antibody (Cat: 2050-05, SouthernBiotech) for detecting rat or human IgA (Fc), respectively. The membrane was developed using the Clarity™ ECL substrate (Bio-Rad Laboratories, CA, USA).

[3] = tested on: Rat rIgA (poly-rIgA); experiment: SEC determination of poly- and mono-rIgA content of rat rIgA after treatment; conditions: for disassembly of poly-rIgA into monomers (SEC): rat rIgA, reducing agents added, FIG. 3 A-C
Procedure: as §2
In the meantime, the SEC column was also equilibrated with PBS supplemented with the reducing agent at the same concentration. For running SEC, 100 μL of the recombinant IgA (concentration varies between 1 mg/mL and 8 mg/mL) or purified native human IgA1 (˜1 mg/mL) was loaded to the column and UV absorption was recorded following elution. […] The ratios between poly-rIgA and mono-rIgA were calculated as between the corresponding areas under the curve (AUC), and the treatment effect of the thiol agents was judged by the reduction of the poly-rIgA level with a compensatory increase of the mono-rIgA content.
To further investigate specific cysteine residue(s) involved in IgA complexes, expression vectors were constructed to produce recombinant IgA (rIgA) Fc segments of rat and human sequences (FIG. 2, part A) as discussed above. Rat IgA analogs were expressed in BL21 DE3 strain of E. coil and recombinant protein were purified from the bacterial lysate using Histrap HP columns (GE Healthcare) by running fast protein liquid chromatography (FPLC). Human recombinant IgA mimetics were produced from human embryo kidney (HEK293) cells by transfection of the expressing plasmids. Recombinant IgA proteins expressed by the cells were secreted into the culture medium, and they were subsequently purified by Histrap HP columns by FPLC using standard procedures. […] Rat rIgA was produced from bacterial expression as discussed above.
Cysteamine (Cy), an aminothiol that can react with cysteine, is both a natural metabolite produced in mammalian cells and a clinical drug used for treatment of cystinosis. In cystinosis, cysteamine reduces the disulfide bond in cystine, which is the oxidated dimer of amino acid cysteine (FIG. 4, part A). In the context of cysteine residues in proteins, endogenous cysteamine as well as the therapeutic drug forms mixed disulfides with susceptible cysteine sulfhydryl groups in a process called cysteamination (FIG. 4, part B). It was sought to determine whether cysteamine could reduce Cys471-disulfides to disaggregate poly-IgA. Rat rIgA (SEQ ID NO.4) was treated with various concentrations of cysteamine for one hour at 37° C. in phosphate buffered saline at neutral pH and the protein complexes were analyzed by SEC. The SEC column (model: Superdex 200 Increase 10/300 GL by Cytiva) was preequilibrated with the same buffer supplemented with the same concentration of cysteamine.

[4] = tested on: rat poly-rIgA; experiment: Nonreducing SDS-PAGE analysis of rat poly-rIgA after pretreatment; conditions: cysteamine 0 to 10 mM; TCEP 10 mM; untreated poly-IgA >250 kDa
Procedure: as §3
To further ascertain the mechanism-of-action of cysteamine in targeting disulfides, nonreducing SDS-PAGE analysis was performed of rat poly-rIgA (FIG. 5, part D). The samples were pretreated with 0 to 10 mM cysteamine, or 10 mM TCEP as positive control. As expected, poly-IgA appeared as >250 kDa bands on SDS-PAGE. Dose-dependent response of poly-rIgA to cysteamine was evident, with majority of the protein running at ˜64 kDa of disaggregated monomers.

[5] = target: T2, human IgA1 (poly-IgA1) (Homo sapiens, UniProt P01876); experiment: SEC of native human IgA1 treated ex vivo; conditions: total IgA1 from human sera, FIG. 5 E-F
T2 construct: human IgA1 whole molecule was purified from pooled plasma of IgA nephropathy patients; from tissue
T2 sequence (P01876 1-353 isoform P01876-1): as the sequence (P01876 1-353 isoform P01876-1, one chain of several) above
Text: as §1, §2
In the meantime, the SEC column was also equilibrated with PBS supplemented with the reducing agent at the same concentration. For running SEC, 100 μL of the recombinant IgA (concentration varies between 1 mg/mL and 8 mg/mL) or purified native human IgA1 (˜1 mg/mL) was loaded to the column and UV absorption was recorded following elution. Recombinant IgA typically formed two elution peaks: a minor peak of ˜800 kDa poly-rIgA followed by a major peak of ˜170 kDa of monomeric rIgA. The ratios between poly-rIgA and mono-rIgA were calculated as between the corresponding areas under the curve (AUC), and the treatment effect of the thiol agents was judged by the reduction of the poly-rIgA level with a compensatory increase of the mono-rIgA content.
In addition, human IgA1 whole molecule was purified from pooled plasma of IgA nephropathy patients and subjected the sample to different concentrations of cysteamine (FIG. 5, part C). […]

SMILES | disruption of natural IgA assembly / normal pairing of IgA heavy chains [2] | disassembly of poly-rIgA into monomers (SEC) [3] | poly-IgA level (SEC) [5] | other results
OCCS [2-mercaptoethanol] |  |  |  | size of IgA1 band after reduction of ~600 kDa poly-IgA1 (Western blot) ([1]; eight individual IgA nephropathy patients): ~65 kDa
O[C@@H](CS)[C@@H](O)CS (racemic) [DDT, 1,4-Dithiothreitol] | inadvertently dissociated normal pairing of IgA heavy chains | poly-rIgA disassembled into monomers |  | 
O=C(O)CCP(CCC(=O)O)CCC(=O)O [TCEP, tris(2-carboxyethyl)phosphine] | inadvertently dissociated normal pairing of IgA heavy chains | poly-rIgA disassembled into monomers |  | size of IgA band after reduction of ~600 kDa poly-IgA (Western blot) ([1]; pooled plasma of IgA nephropathy patients (n=10)): ~65 KDa; molecular weight of protein band after pretreatment (nonreducing SDS-PAGE) [4]: ~32 kDa
NCCCNCCS [WR-1065, 2-[(3-aminopropyl)amino]ethanethiol] | did not cause unwanted disruption of natural IgA1 assembly |  | reduction of poly-IgA levels | 
CC(=O)N[C@@H](CS)C(=O)O [N-acetylcysteine, N-acetyl-L-cysteine] | did not cause unwanted disruption of natural IgA1 assembly |  | lowered poly-IgA levels in a dose-dependent manner | 
N[C@@H](CCC(=O)N[C@@H](CS)C(=O)NCC(=O)O)C(=O)O [glutathione] |  |  |  | effect on poly-IgA levels at comparable concentrations ([3]; compared with cysteamine, WR-1065, N-acetylcysteine): relatively modest effects on poly-IgA levels
